Here are results for 13 compounds from patent US20040248765A1, “Tumour targeting prodrugs activated by metallo matrixproteinases” (priority 2001, published 2004).

The melting point is the temperature, or range, at which the solid turns liquid. As a reminder, the IC50 is the concentration needed to halve the response being measured. In general, t½ refers to the time needed for the level to fall by half in the phase considered. Broadly, the half-life is how long it takes for the measured level to halve.

One series addresses T1, topo I (Homo sapiens, UniProt P11387).
T1 sequence (P11387 1-765): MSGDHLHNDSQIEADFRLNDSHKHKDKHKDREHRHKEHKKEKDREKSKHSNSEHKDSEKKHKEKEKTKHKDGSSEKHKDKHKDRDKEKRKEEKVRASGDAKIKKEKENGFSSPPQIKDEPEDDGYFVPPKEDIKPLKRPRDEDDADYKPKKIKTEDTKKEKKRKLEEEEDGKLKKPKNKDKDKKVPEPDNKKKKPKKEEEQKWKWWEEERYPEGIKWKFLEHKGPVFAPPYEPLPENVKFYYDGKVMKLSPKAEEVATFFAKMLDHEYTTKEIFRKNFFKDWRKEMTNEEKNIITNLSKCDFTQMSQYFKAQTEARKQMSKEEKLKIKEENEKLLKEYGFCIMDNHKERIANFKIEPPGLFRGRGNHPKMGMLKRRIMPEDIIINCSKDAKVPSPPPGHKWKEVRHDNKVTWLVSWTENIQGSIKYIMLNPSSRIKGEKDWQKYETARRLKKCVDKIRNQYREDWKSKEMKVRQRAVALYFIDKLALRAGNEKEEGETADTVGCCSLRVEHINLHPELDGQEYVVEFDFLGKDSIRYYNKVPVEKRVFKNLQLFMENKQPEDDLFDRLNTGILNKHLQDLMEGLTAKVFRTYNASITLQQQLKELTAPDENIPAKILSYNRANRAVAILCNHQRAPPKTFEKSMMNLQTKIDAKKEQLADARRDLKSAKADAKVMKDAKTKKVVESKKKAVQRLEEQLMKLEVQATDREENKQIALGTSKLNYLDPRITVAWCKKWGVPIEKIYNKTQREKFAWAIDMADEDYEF
The series can be described thus: Inhibition of topo I-mediated relaxation of pBR322 DNA. Format: biochemical. The settings on record: for LEVEL OF INHIBITION of topo I-mediated relaxation pBR322 DNA: tested between 1-100 μM. The procedure:
Neither example (8) [NU:UB187] (heptapeptide) nor its hexa-, penta-, or tetra-peptide metabolites {examples (7) [NU:UB 205], (6) [NU:UB 204] and (5) [NU:UB 186] respectively} inhibited the topo I- mediated relaxation of pBR322 DNA at concentrations up to 100 μM. […] (the preferred MMP-2 cleavage product of example (8) [NU:UB187] The topo I activities of example (2) [NU:UB 31] and example (1b) [NU:UB 197] bad previously been determined [Table 1].

In another series the test system is MAC15A. The series can be described thus: In vitro cytotoxicity, MAC15A, 1 hour exposure. The settings on record: for % cells remaining: 1 × 10^4 cells/ml. Format: cell-based.
Series [1] has as its system MAC15A adenocarcinoma of the colon. Description: In vitro cytotoxicity against MAC15A adenocarcinoma of the colon, 96 hours exposure. Format: cell-based.
Series [2] can be described thus: In vitro tumour incubations: metabolism by dilute HT1080 tumour homogenate (HPLC). Format: in vitro ADME. Conditions: dilute HT1080 tumour homogenate (1:500). The method, then: Separation was achieved using gradient reversed phase HPLC On a Lichrospher (25×4 mm) column.
Mobile phase A consisted of 10% acetonitrile: 90% TFA (0.05%) and mobile phase B of 60% acetonitrile: 40% TFA (0.05%). Optimum detection was at the λmax of 248 nm using a flow rate of 1.2 ml/min. The gradient profile was from 60% A to 5% A over 25 min.
Sample preparation for HPLC was by simple protein precipitation. 3 vols. of methanol were added to 1 vol. of sample (typically 100 μl) which was centrifuged at 3000 g for 5 min. The supernatant was injected directly onto the HPLC column.
In Vitro Tumour Incubations
Solid tumour (HTT1080—excised from NCI-Nu mice under a Home Office Licence) was homogenised (1:4) in MMP buffer. Tumour homogenates were incubated at 25° C. and compounds (drugs) were added to the homogenate to give a final concentration of 10 μM or 100 μM. Samples were taken at timed intervals and prepared for HPLC analysis as described above.
Where metabolism was so rapid tumour homogenates required dilution (to 1:500) before analysis.

A short description of series [3]: Stability in murine whole blood and mouse plasma. It counts as in vitro ADME.
In series [4] the test system is calf thymus DNA. Description: Fluorescence quenching, Ethidium Bromide displacement from calf thymus DNA. Format: binding. The settings on record: calf thymus DNA.
The subject of series [5] is calf thymus DNA. The series can be described thus: Fluorescence quenching, Hoechst Dye 33258 displacement from calf thymus DNA. Conditions: calf thymus DNA. It counts as binding.

Structures are written as SMILES. Where two headings read alike, the source gives them in different places. Where a SMILES comes first, the peptide text is derived from it. [ ]: non-standard residue; d: D form. The star is where a group is joined. NH(CH2)3NH(1-anthraquinonyl) = O=C1c2ccccc2C(=O)c2c(NCCCN*)cccc21

Consider `CC(C)C[C@H](NC(=O)[C@H](C)N)C(=O)NCC(=O)N[C@@H](CC(C)C)C(=O)N1CCC[C@H]1C(=O)NCCCNc1cccc2c1C(=O)c1ccccc1C2=O.O=C(O)C(F)(F)F` [Example 6, 1-[3-(L-Alanyl-L-leucyl-glycyl-L-leucyl-L-prolylamino)propylamino]-anthraquinone trifluoroacetate], for which the melting point turned out to be 168 °C. In addition, the “LEVEL OF INHIBITION of topo I-mediated relaxation pBR322 DNA” value (“LEVEL OF INHIBITION” below) at topo I was “No inhibition of relaxation between 1-100 μM”.

As to `CC(C)C[C@H](N)C(=O)N1CCC[C@H]1C(=O)NCCCNc1cccc2c1C(=O)c1ccccc1C2=O.O=C(O)C(F)(F)F` [Example 3, 1-[3-(L-Leucyl-L-prolylamino)propylamino]anthraquinone trifluoroacetate], the melting point was determined as 126 °C. In addition, on topo I, the “LEVEL OF INHIBITION” value is listed as “Complete inhibition of relaxation at 5 μM”. Also, in the series with MAC15A (1 μM), the “% cells remaining” value is listed as 80%. Moreover, in the series with MAC15A (10 μM), the “% cells remaining” value came to 58%. In addition, the “% cells remaining” value in the series on MAC15A (100 μM) was found to be 1%. Also, the midpoint of inhibition in the series with MAC15A (Mus musculus), the IC50, lay at 14 µM. The compound also registered an IC50 in series [1] (Mus musculus, 96 h) of 2 µM.

As for `CC(C)C[C@H](N)C(=O)N1CCC[C@H]1C(=O)NCCCNc1cccc2c1C(=O)c1ccccc1C2=O.O=C(O)C(F)(F)F` [example (3)], at topo I, the “inhibition of topo I-mediated relaxation, in words” value is “Greatest inhibitory activity”.

Regarding `CC(C)C[C@H](NC(=O)[C@H](C)NC(=O)[C@H](C)NC(=O)[C@@H](C)N)C(=O)NCC(=O)N[C@@H](CC(C)C)C(=O)N1CCC[C@@H]1C(=O)NCCCNc1cccc2c1C(=O)c1ccccc1C2=O.O=C(O)C(F)(F)F` [example (15)] (H-[dA]AALGL[dP]-{NH(CH2)3NH(1-anthraquinonyl)}), in series [2], the “major products / metabolite” value was “the expected cleavage product example (11) [NU:UB 224]” and the rate of metabolism is 2.5 μmol/min/g tissue.

`CC(C)C[C@H](NC(=O)CN)C(=O)N1CCC[C@H]1C(=O)NCCCNc1cccc2c1C(=O)c1ccccc1C2=O.O=C(O)C(F)(F)F` [Example 4, 1-[3-(Glycyl-L-leucyl-L-prolylamino)propylamino]anthraquinone trifluoroacetate] came in with a melting point of 144 to 148 °C. In addition, on topo I, the “LEVEL OF INHIBITION” value is “Partial inhibition of relaxation at 50 μM”. Also, in the series with MAC15A (1 μM), the “% cells remaining” value stood at 91%. In the series with MAC15A (10 μM), the “% cells remaining” value was 55%. Further, the “% cells remaining” value with MAC15A (100 μM) was found to be 0%. In the series on MAC15A (Mus musculus), this compound displayed an IC50 of 13 µM.

On to `CC(C)C[C@H](NC(=O)[C@H](C)NC(=O)[C@H](C)N)C(=O)NCC(=O)N[C@@H](CC(C)C)C(=O)N1CCC[C@H]1C(=O)NCCCNc1cccc2c1C(=O)c1ccccc1C2=O.O=C(O)C(F)(F)F` [Example 7, 1-[3-(L-Alanyl-L-alanyl-L-leucyl-glycyl-L-leucyl-L-prolylamino)-propylamino]anthraquinone trifluoroacetate], for which the melting point worked out at 132 °C. Further, the “LEVEL OF INHIBITION” value on topo I is on record as “No inhibition of relaxation between 1-100 μM”.

As to `CC(C)C[C@H](NC(=O)[C@H](C)NC(=O)[C@H](C)NC(=O)[C@@H](C)N)C(=O)NCC(=O)N[C@@H](CC(C)C)C(=O)N1CCC[C@H]1C(=O)NCCCNc1cccc2c1C(=O)c1ccccc1C2=O.O=C(O)C(F)(F)F` [example (8)] (H-[dA]AALGLP-{NH(CH2)3NH(1-anthraquinonyl)}), the t½ in series [3] (mouse plasma at 37° C.) was more than 13 h. The half-life in series [3] (murine whole blood) amounted to 1.46 h.

For the compound `CC[C@H](C)[C@H](N)C(=O)NCC(=O)N[C@@H](Cc1ccccc1)C(=O)N1CCC[C@H]1C(=O)NCCCNc1cccc2c1C(=O)c1ccccc1C2=O.O=C(O)C(F)(F)F` [Example 74, 1-[3-(L-Isoleucyl-glycyl-L-phenylalanyl-L-prolylamino)propylamino]-anthraquinone trifluoroacetate], the melting point is 122 to 124 °C. For the same compound, in series [1] (Mus musculus, exposure time 96 hours, read-out: IC50), the IC50 came to 2.5 µM.

Regarding `CC(C)C[C@H](NC(=O)CNC(=O)[C@@H](N)CC(C)C)C(=O)N1CCC[C@H]1C(=O)NCCCNc1cccc2c1C(=O)c1ccccc1C2=O.O=C(O)C(F)(F)F` [Example 5, 1-[3-(L-Leucyl-glycyl-L-leucyl-L-prolylamino)propylamino]-anthraquinone trifluoroacetate] (H-LGLP-{NH(CH2)3NH(1-anthraquinonyl)}), the melting point stood at 144 °C. Moreover, the “LEVEL OF INHIBITION” value on topo I was “No inhibition of relaxation between 1-100 μM”. For the same compound, in the series on MAC15A (1 μM), the “% cells remaining” value is given as 89%. Further, in the series with MAC15A (10 μM), the “% cells remaining” value is on record as 100%. For the same compound, the “% cells remaining” value with MAC15A (100 μM) is on record as 0%. The compound also returned an IC50 with MAC15A (Mus musculus) of 30 µM.

As for `CC(C)C[C@H](NC(=O)CN)C(=O)N1CCC[C@H]1C(=O)NCCCNc1cccc2c1C(=O)c1ccccc1C2=O.O=C(O)C(F)(F)F` [example (4)], the “inhibition of topo I-mediated relaxation, in words” value on topo I is “weakly inhibited relaxation at 50 μM”.

`O=C(O)C(F)(F)F.O=C1c2ccccc2C(=O)c2c(NCCCNC(=O)[C@H]3CCCN3)cccc21` [Example 9, 1-[3-(D-Prolylamino)propylamino]anthraquinone trifluoroacetate] returned a melting point of 177 °C. This compound came in with an IC50 in series [1] (Mus musculus, 96 h) of 3.5 µM.

With `NCCCNc1cccc2c1C(=O)c1ccccc1C2=O.O=C(O)C(F)(F)F` [Example 1b, 1-[(3-Aminopropyl)amino]anthraquinone trifluoroacetate], on topo I, the “LEVEL OF INHIBITION” value is recorded as “Complete inhibition of relaxation at 25 μM”. The entries for the “% cells remaining” value in the series on MAC15A (1 μM), with MAC15A (10 μM) and with MAC15A (100 μM) were 90%, 100% and 5%, respectively. The compound further displayed an IC50 in the series with MAC15A (Mus musculus) of 33 µM.

With `O=C(O)C(F)(F)F.O=C1c2ccccc2C(=O)c2c(NCCCNC(=O)[C@@H]3CCCN3)cccc21` [Example 2, 1-[3-(L-Propylamino)propylamino]anthraquinone trifluoroacetate], at topo I, the “LEVEL OF INHIBITION” value was “Complete inhibition of relaxation at 25 μM”. Moreover, the IC50 in the series with MAC15A was determined as 5 µM; in series [1] (exposure time 96 hours, read-out: IC50) it was 4.3 µM. Also, the “% cells remaining” value in the series on MAC15A (1 μM) is listed as 100%; in the series with MAC15A (10 μM) it was 30%; with MAC15A (100 μM), 0%. Also, the “QE50 (Ethidium Bromide displacement)” value with calf thymus DNA [4] stood at 2 µM. Moreover, the “QH50 (Hoechst Dye 33258 displacement)” value in the series on calf thymus DNA [5] was 0.6 µM.
